Data: ChEMBL document CHEMBL4028801, “A multifactorial approach to hepatobiliary transporter assessment enables improved therapeutic compound development” (Toxicol Sci, 2013)
Where a name gives a salt, the structure may show the parent alone.

How the values were obtained:
[1] = Ratio of drug concentration at steady state in human at 20 to 80 mg, po QD after 24 hrs to IC50 for human MRP3 overexpressed in Sf9 insect cells; assay type: ADME, organism-based; settings: in vivo
[2] = molecular target: ATP-binding cassette sub-family C member 3 (Homo sapiens, UniProt O15438); experiment: Inhibition of human MRP3 overexpressed in Sf9 insect cell membrane vesicles assessed as uptake of [3H]-estradiol-17beta-D-glucuronide in presence of ATP and GSH measured after 10 mins by membrane vesicle transport assay; assay type: ADME, cell-based
Chain of ATP-binding cassette sub-family C member 3 (O15438 whole entry): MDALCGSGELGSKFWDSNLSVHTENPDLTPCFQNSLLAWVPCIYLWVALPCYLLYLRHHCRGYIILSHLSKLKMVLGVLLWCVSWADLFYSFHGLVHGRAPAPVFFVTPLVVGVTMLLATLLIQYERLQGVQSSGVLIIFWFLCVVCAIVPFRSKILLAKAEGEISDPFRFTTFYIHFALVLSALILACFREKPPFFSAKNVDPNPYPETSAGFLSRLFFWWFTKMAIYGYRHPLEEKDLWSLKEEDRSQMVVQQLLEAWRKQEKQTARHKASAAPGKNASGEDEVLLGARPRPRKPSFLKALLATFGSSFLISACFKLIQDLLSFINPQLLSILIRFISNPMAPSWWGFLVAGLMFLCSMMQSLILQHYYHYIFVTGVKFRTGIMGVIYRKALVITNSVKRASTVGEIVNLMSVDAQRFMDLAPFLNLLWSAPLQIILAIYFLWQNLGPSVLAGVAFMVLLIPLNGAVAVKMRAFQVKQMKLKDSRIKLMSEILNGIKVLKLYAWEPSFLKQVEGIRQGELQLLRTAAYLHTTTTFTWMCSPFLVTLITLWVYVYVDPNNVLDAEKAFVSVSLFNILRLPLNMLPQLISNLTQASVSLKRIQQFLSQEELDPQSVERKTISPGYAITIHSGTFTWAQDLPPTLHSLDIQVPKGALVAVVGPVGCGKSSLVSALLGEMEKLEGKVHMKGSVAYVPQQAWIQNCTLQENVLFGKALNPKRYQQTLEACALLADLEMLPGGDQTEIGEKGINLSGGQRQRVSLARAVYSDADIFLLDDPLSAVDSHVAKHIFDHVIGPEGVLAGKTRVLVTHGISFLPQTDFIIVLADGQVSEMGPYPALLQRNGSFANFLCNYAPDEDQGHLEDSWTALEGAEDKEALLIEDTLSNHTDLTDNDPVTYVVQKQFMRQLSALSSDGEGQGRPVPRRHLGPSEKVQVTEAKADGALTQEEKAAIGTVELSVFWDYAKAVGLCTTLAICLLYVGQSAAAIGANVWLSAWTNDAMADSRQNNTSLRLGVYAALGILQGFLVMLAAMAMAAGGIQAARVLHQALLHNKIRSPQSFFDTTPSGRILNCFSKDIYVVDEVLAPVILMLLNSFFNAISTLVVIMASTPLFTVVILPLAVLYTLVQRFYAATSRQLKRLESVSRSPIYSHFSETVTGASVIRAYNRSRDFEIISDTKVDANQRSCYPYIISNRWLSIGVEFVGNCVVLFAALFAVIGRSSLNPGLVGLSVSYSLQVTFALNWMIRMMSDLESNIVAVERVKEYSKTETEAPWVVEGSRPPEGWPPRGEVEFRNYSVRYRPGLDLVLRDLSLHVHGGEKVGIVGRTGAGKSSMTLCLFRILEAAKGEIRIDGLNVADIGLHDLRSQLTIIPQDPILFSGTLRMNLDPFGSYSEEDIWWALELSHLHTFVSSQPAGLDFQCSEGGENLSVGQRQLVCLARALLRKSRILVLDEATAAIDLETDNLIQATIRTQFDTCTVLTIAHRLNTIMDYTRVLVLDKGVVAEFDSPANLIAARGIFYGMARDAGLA

[3] = molecular target: T1, ATP-binding cassette sub-family C member 4 (Homo sapiens, UniProt O15439); experiment: Inhibition of human MRP4 overexpressed in Sf9 cell membrane vesicles assessed as uptake of [3H]-estradiol-17beta-D-glucuronide in presence of ATP and GSH measured after 20 mins by membrane vesicle transport assay; assay type: ADME, cell-based
T1 sequence (O15439 whole entry): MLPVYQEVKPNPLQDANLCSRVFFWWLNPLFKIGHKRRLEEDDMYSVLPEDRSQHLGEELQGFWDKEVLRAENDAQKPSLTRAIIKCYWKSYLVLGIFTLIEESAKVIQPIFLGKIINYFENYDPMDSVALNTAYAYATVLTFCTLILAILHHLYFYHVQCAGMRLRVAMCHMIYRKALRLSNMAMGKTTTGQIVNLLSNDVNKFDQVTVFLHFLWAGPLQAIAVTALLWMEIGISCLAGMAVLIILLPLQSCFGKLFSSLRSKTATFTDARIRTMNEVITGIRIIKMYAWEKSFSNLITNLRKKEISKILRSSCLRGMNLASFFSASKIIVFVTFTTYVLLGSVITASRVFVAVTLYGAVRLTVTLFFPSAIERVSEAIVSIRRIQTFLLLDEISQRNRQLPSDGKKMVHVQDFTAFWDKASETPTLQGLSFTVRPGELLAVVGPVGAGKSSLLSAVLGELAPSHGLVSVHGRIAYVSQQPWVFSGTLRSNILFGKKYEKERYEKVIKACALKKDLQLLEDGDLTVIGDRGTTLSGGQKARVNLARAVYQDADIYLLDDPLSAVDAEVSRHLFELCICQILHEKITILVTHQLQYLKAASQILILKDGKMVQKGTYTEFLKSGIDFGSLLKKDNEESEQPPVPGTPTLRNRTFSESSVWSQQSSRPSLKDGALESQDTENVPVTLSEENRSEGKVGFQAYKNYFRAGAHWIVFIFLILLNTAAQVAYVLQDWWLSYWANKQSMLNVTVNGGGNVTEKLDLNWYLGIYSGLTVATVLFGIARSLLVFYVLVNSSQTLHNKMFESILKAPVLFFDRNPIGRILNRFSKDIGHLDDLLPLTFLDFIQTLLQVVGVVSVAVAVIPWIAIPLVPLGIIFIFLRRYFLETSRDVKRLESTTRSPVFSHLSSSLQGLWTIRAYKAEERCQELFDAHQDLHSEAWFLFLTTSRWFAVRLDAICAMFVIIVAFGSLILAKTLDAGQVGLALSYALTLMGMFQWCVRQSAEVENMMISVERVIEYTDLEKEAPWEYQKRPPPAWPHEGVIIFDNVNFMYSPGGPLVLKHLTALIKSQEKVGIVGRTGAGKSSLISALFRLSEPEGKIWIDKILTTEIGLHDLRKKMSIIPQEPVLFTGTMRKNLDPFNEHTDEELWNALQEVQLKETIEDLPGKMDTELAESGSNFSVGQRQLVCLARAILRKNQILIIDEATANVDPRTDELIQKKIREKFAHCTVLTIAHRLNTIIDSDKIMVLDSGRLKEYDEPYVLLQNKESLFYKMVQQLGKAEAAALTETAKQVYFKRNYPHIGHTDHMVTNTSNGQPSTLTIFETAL

[4] = AUC in human at 20 to 80 mg, po QD after 24 hrs; assay type: ADME, organism-based; settings: in vivo
[5] = Drug concentration at steady state in human at 20 to 80 mg, po QD after 24 hrs; assay type: ADME, organism-based; settings: in vivo, read-out: Css
[6] = Ratio of drug concentration at steady state in human at 20 to 80 mg, po QD after 24 hrs to IC50 for human BSEP overexpressed in Sf9 insect cells; assay type: ADME, organism-based; settings: in vivo
Bile salt export pump = Bile salt export pump (Homo sapiens, UniProt O95342); experiment: Inhibition of human BSEP overexpressed in Sf9 cell membrane vesicles assessed as uptake of [3H]-taurocholate in presence of ATP measured after 15 to 20 mins by membrane vesicle transport assay; assay type: ADME, cell-based
Chain of Bile salt export pump (O95342 whole entry): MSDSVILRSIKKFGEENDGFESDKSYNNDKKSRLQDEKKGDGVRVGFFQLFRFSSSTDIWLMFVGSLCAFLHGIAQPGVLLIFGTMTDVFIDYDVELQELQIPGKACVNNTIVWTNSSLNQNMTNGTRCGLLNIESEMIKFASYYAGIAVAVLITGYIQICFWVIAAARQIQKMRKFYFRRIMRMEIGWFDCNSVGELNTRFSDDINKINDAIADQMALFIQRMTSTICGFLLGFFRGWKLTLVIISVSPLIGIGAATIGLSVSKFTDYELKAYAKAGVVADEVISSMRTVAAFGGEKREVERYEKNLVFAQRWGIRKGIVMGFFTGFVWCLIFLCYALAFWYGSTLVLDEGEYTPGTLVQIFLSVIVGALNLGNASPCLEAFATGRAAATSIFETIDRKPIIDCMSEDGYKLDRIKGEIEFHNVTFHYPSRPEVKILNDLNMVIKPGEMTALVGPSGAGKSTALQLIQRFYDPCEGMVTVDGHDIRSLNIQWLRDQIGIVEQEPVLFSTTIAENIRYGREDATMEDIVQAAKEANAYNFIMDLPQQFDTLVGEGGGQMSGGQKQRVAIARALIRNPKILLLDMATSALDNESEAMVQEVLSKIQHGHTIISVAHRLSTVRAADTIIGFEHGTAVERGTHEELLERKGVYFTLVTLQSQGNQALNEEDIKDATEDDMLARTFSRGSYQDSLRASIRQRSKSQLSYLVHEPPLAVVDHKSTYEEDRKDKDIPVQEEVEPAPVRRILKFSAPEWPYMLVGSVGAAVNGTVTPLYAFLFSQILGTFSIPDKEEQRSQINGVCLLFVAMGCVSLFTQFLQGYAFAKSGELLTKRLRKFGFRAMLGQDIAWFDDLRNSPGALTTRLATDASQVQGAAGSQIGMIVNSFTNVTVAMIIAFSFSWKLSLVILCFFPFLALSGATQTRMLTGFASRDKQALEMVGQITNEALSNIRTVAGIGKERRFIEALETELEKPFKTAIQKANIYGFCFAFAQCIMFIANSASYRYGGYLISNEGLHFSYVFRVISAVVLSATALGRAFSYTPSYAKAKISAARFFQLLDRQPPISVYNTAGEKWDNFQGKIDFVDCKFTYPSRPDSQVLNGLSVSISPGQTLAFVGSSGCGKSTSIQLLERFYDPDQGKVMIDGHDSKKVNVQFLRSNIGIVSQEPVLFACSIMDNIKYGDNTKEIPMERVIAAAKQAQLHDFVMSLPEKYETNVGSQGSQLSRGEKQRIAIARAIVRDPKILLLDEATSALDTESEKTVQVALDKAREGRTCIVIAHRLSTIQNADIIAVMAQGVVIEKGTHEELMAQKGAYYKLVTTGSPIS

[7] = molecular target: ATP-binding cassette sub-family C member 2 (Homo sapiens, UniProt Q92887); experiment: Inhibition of human MRP2 overexpressed in Sf9 cell membrane vesicles assessed as uptake of [3H]-estradiol-17beta-D-glucuronide in presence of ATP and GSH measured after 20 mins by membrane vesicle transport assay
Chain of ATP-binding cassette sub-family C member 2 (Q92887 whole entry): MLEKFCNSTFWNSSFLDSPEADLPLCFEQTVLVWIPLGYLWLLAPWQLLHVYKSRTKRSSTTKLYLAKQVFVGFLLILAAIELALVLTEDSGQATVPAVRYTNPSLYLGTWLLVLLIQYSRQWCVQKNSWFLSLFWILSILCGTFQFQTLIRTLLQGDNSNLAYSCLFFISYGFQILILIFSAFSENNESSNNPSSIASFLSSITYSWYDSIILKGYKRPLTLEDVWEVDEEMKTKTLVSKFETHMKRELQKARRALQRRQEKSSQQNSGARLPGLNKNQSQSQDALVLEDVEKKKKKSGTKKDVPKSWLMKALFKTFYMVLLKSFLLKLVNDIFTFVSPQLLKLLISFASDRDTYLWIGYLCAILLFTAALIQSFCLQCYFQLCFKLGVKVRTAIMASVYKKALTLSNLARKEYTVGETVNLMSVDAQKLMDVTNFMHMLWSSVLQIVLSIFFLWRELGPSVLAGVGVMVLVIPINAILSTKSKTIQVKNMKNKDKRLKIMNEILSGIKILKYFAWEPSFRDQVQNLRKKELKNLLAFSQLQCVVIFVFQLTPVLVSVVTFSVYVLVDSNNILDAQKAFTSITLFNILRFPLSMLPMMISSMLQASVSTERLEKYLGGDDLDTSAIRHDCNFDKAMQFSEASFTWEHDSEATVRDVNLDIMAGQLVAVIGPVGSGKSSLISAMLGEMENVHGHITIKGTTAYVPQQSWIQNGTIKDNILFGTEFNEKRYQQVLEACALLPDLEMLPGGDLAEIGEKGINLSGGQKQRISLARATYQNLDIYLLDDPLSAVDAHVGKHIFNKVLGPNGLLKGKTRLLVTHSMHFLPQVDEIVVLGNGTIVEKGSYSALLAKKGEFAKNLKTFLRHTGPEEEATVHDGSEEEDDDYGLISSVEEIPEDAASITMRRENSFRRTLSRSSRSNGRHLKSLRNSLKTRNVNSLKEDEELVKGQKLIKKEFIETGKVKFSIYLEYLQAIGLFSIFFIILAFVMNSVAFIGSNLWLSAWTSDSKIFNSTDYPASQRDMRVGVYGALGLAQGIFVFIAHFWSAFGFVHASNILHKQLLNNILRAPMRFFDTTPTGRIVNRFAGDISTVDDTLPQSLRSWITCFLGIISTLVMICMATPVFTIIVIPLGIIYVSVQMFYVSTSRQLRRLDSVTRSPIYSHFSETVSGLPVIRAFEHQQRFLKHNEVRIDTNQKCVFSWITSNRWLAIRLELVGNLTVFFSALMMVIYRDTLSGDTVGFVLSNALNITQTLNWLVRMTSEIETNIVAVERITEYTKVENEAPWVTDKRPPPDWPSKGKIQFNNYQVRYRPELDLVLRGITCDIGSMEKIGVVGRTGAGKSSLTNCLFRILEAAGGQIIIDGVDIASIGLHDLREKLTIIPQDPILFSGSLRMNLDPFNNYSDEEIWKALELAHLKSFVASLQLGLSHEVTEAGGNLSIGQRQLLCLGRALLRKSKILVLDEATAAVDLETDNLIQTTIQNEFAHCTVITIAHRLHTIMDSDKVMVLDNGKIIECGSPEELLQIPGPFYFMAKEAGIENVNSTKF

[8] = Ratio of drug concentration at steady state in human administered intraocularly as 1 drop QD of 0.03% solution after 24 hrs to IC50 for human BSEP overexpressed in Sf9 insect cells; assay type: ADME; settings: topical_or_ocular
[9] = AUC in human at 50 mg, po QD after 24 hrs; assay type: ADME, organism-based; set-up: dose 50 mg, time < 24 hr, route oral; settings: in vivo
[10] = Drug concentration at steady state in human at 50 mg, po QD after 24 hrs; assay type: ADME, organism-based; settings: in vivo, read-out: Css
[11] = Ratio of drug concentration at steady state in human at 50 mg, po QD after 24 hrs to IC50 for human BSEP overexpressed in Sf9 insect cells; assay type: ADME, organism-based; settings: in vivo
Homo sapiens = experiment: Cardiotoxicity in human at 20 to 30 mg/day, po; assay type: toxicity
[12] = AUC in human at 10 mg, po after 24 hrs; assay type: ADME, organism-based; set-up: time < 24 hr, dose 10 mg, route oral; settings: in vivo
[13] = Ratio of drug concentration at steady state in human at 5 to 10 mg, po QD after 24 hrs to IC50 for human BSEP overexpressed in Sf9 insect cells; assay type: ADME, organism-based; settings: in vivo
[14] = Drug concentration at steady state in human at 5 to 10 mg, po QD after 24 hrs; assay type: ADME, organism-based; settings: in vivo, read-out: Css
[15] = AUC in human at 5 to 10 mg, po QD after 24 hrs; assay type: ADME, organism-based; settings: in vivo
[16] = Drug concentration at steady state in human at 15 to 60 mg, po QD after 24 hrs; assay type: ADME, organism-based; settings: in vivo, read-out: Css
[17] = AUC in human at 15 to 60 mg, po QD after 24 hrs; assay type: ADME, organism-based; settings: in vivo
[18] = Ratio of drug concentration at steady state in human at 15 to 60 mg, po QD after 24 hrs to IC50 for human BSEP overexpressed in Sf9 insect cells; assay type: ADME, organism-based; settings: in vivo

CC(C)n1c(/C=C/C(O)CC(O)CC(=O)O)c(-c2ccc(F)cc2)c2ccccc21 (configuration not stated) [FLUVASTATIN]
Ratio [1]: 0.001 | IC50 [2]: 57 µM | IC50 [3]: > 133 µM | AUC at 24 h [4]: 1.49 µM·h | concentration at 24 h [5]: 62 nM | Ratio [6]: 0.002

CCNC(=O)CCC/C=C\C[C@@H]1[C@@H](/C=C/[C@@H](O)CCc2ccccc2)[C@H](O)C[C@@H]1O [BIMATOPROST]
IC50 [2]: > 133 µM | IC50 (Bile salt export pump): 40.4 µM | IC50 [3]: > 133 µM | IC50 [7]: > 133 µM | Ratio [8]: 2e-7

CC(O)(CS(=O)(=O)c1ccc(F)cc1)C(=O)Nc1ccc(C#N)c(C(F)(F)F)c1 (configuration not stated) [BICALUTAMIDE]
IC50 [2]: > 133 µM | AUC at 24 h [9]: 502 µM·h | IC50 (Bile salt export pump): 79.6 µM | IC50 [3]: > 133 µM | IC50 [7]: > 133 µM | concentration at 24 h [10]: 20.9 µM | Ratio [11]: 0.263

COc1ccc(CCN2CCC(Nc3nc4ccccc4n3Cc3ccc(F)cc3)CC2)cc1 [ASTEMIZOLE]
IC50 [2]: > 133 µM | Activity (Homo sapiens): Toxic | IC50 [3]: > 133 µM | AUC at 24 h [12]: 0.024 µM·h | IC50 [7]: > 133 µM

CC(C)(C)C(=O)OCOP(=O)(COCCn1cnc2c(N)ncnc21)OCOC(=O)C(C)(C)C [ADEFOVIR DIPIVOXIL]
IC50 [2]: > 133 µM | Ratio [13]: 0.00069 | IC50 (Bile salt export pump): 46 µM | IC50 [3]: > 133 µM | concentration at 24 h [14]: 32 nM | IC50 [7]: > 133 µM | AUC at 24 h [15]: 0.765 µM·h

Cc1ccccc1C(=O)Nc1ccc(C(=O)N2CCCC(O)c3cc(Cl)ccc32)c(C)c1 (configuration not stated) [TOLVAPTAN]
IC50 [2]: > 133 µM | concentration at 24 h [16]: 396 nM | AUC at 24 h [17]: 9.49 µM·h | IC50 (Bile salt export pump): 9.99 µM | IC50 [3]: > 133 µM | IC50 [7]: > 133 µM | Ratio [18]: 0.04

CCN(CC)CCNC(=O)c1ccc(NC(C)=O)cc1 [ACECAINIDE]
IC50 [2]: > 133 µM | IC50 (Bile salt export pump): > 133 µM | IC50 [3]: > 133 µM | IC50 [7]: > 133 µM

CN1C(C(=O)Nc2ccccn2)=C(O)c2ccccc2S1(=O)=O [PIROXICAM]
IC50 [2]: > 133 µM | IC50 (Bile salt export pump): > 133 µM | IC50 [3]: > 133 µM | IC50 [7]: > 133 µM

Cc1cc2c(s1)Nc1ccccc1N=C2N1CCN(C)CC1 [OLANZAPINE]
IC50 [2]: > 133 µM | IC50 (Bile salt export pump): > 133 µM | IC50 [3]: > 133 µM | IC50 [7]: > 133 µM

CO/N=C1\CN(c2nc3c(cc2F)c(=O)c(C(=O)O)cn3C2CC2)CC1CN (configuration not stated) [GEMIFLOXACIN MESYLATE]
IC50 [2]: > 133 µM | IC50 (Bile salt export pump): > 133 µM | IC50 [3]: 73.2 µM | IC50 [7]: > 133 µM

c1cnc(N2CCN(Cc3ccc4c(c3)OCO4)CC2)nc1 [PIRIBEDIL]
IC50 [2]: > 133 µM | IC50 (Bile salt export pump): > 133 µM | IC50 [3]: > 133 µM | IC50 [7]: > 133 µM

C[C@]12CC[C@@H]3c4ccc(O)cc4C[C@@H](CCCCCCCCC[S+]([O-])CCCC(F)(F)C(F)(F)F)[C@H]3[C@@H]1CC[C@@H]2O (some centres not stated) [FULVESTRANT]
IC50 [2]: > 133 µM | IC50 (Bile salt export pump): > 133 µM | IC50 [3]: > 133 µM | IC50 [7]: > 133 µM

CNNCc1ccc(C(=O)NC(C)C)cc1 [PROCARBAZINE HYDROCHLORIDE]
IC50 [2]: > 133 µM | IC50 (Bile salt export pump): > 133 µM | IC50 [3]: > 133 µM | IC50 [7]: > 133 µM

Cc1cn([C@H]2C[C@H](N=[N+]=[N-])[C@@H](CO)O2)c(=O)[nH]c1=O [ZIDOVUDINE]
IC50 [2]: > 133 µM | IC50 (Bile salt export pump): > 133 µM | IC50 [3]: > 133 µM | IC50 [7]: > 133 µM

O=C(CC(=O)C(F)(F)F)c1cccs1
IC50 [2]: > 133 µM | IC50 (Bile salt export pump): > 133 µM | IC50 [3]: > 133 µM | IC50 [7]: > 133 µM

Nc1c2c(nc3ccccc13)CCCC2 [TACRINE]
IC50 [2]: > 133 µM | IC50 (Bile salt export pump): > 133 µM | IC50 [3]: 23.7 µM | IC50 [7]: > 133 µM

CCNC(=O)[C@@H]1CCCN1C(=O)[C@H](CCCNC(=N)N)NC(=O)[C@H](CC(C)C)NC(=O)[C@@H](CC(C)C)NC(=O)[C@H](Cc1ccc(O)cc1)NC(=O)[C@H](CO)NC(=O)[C@H](Cc1c[nH]c2ccccc12)NC(=O)[C@H](Cc1c[nH]cn1)NC(=O)[C@@H]1CCC(=O)N1 [LEUPROLIDE ACETATE]
IC50 [2]: > 133 µM | IC50 (Bile salt export pump): > 133 µM | IC50 [3]: > 133 µM | IC50 [7]: 80.2 µM

O=C(O)CCC/C=C\CC1C(O)CC(O)C1/C=C/C(O)COc1cccc(Cl)c1 (configuration not stated) [CLOPROSTENOL SODIUM]
IC50 [2]: > 133 µM | IC50 (Bile salt export pump): > 133 µM | IC50 [3]: 1.9 µM | IC50 [7]: > 133 µM

CO[C@H]1/C=C/O[C@@]2(C)Oc3c(C)c(O)c4c(O)c(c5c(nc6cc(C)ccn65)c4c3C2=O)NC(=O)/C(C)=C\C=C\[C@H](C)[C@H](O)[C@@H](C)[C@@H](O)[C@@H](C)[C@H](OC(C)=O)[C@@H]1C [RIFAXIMIN]
IC50 [2]: 65 µM | IC50 (Bile salt export pump): 42 µM | IC50 [3]: 30.2 µM | IC50 [7]: 15.4 µM

NS(=O)(=O)c1cc2c(cc1C(F)(F)F)NCNS2(=O)=O [HYDROFLUMETHIAZIDE]
IC50 [2]: > 133 µM | IC50 (Bile salt export pump): > 133 µM | IC50 [3]: > 133 µM | IC50 [7]: > 133 µM

CC[C@H](C)C(=O)O[C@H]1C[C@H](O)C=C2C=C[C@H](C)[C@H](CC[C@@H](O)C[C@@H](O)CC(=O)O)[C@H]21 [PRAVASTATIN SODIUM]
IC50 [2]: 125 µM | IC50 (Bile salt export pump): > 133 µM | IC50 [3]: > 133 µM | IC50 [7]: > 133 µM
